Laboratory results as given in ChEMBL document CHEMBL1201862, “PubChem BioAssay data set” (2004).
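96-well plates; 48 h exposure; 5 concentrations. Endpoints by linear interpolation between flanking doses. Not reached: highest tested concentration assigned. At the GI50, growth is halved.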 Active and inactive are the calls of the source. Rule as the data show it: active = GI50 up to about 1.1 µM and inactive = higher.

Key:
Experiment in all cases: DTP human tumour cell line panel, 48 h
[1] = system: LOX IMVI
[2] = system: Hs-578T
[3] = system: UACC-257
[4] = system: TK-10
[5] = system: HCT-15
[6] = system: HT-29
[7] = system: RPMI-8226
[8] = system: UACC-62
[9] = system: SK-OV-3
[10] = system: A498
[11] = system: DU-145
[12] = system: Malme-3M
[13] = system: UO-31
[14] = system: ACHN
[15] = system: NCI-H522
[16] = system: NCI-H226
[17] = system: HOP-92
[18] = system: U-251
[19] = system: A549
[20] = system: SNB-75
[21] = system: BT-549
[22] = system: HCC 2998
[23] = system: HOP-62
[24] = system: MOLT-4
[25] = system: SF-539
[26] = system: SK-MEL-2
[27] = system: SF-268
[28] = system: NCI-H460
[29] = system: CAKI-1
[30] = system: PC-3
[31] = system: MDA-MB-435
[32] = system: OVCAR-3
[33] = system: SF-295
[34] = system: SK-MEL-28
[35] = system: MCF7
[36] = system: HCT-116
[37] = system: COLO 205
[38] = system: MDA-MB-231
[39] = system: SNB-19
[40] = system: OVCAR-8
[41] = system: MDA-N
[42] = system: SN12C
[43] = system: RXF 393
[44] = system: K562
[45] = system: SK-MEL-5
[46] = system: IGROV-1
[47] = system: 786-0
[48] = system: NCI-H23
[49] = system: OVCAR-4
[50] = system: EKVX
[51] = system: HL-60
[52] = system: SW-620
[53] = system: KM12
[54] = system: T47D
[55] = system: NCI/ADR-RES
[56] = system: CCRF-CEM
[57] = system: OVCAR-5
[58] = system: M14
[59] = system: SR

In the case of `OC1C[C@H](c2ccccc2)C2(C(O)c3ccccc3C2O)[C@@H](c2ccccc2)C1` (stereo partly specified), the GI50 [1] was 40.2 µM (inactive), the GI50 [2] was > 100 µM (inactive) and the GI50 [3] was 32.2 µM (inactive). For the same compound, the GI50 [4] was > 100 µM (inactive), the GI50 [5] was greater than 100 µM and the GI50 [6] was > 100 µM (inactive). The GI50 [7] was 83.2 µM (inactive), the GI50 [8] was > 100 µM (inactive) and the GI50 [9] was > 100 µM (inactive). For the same compound, the GI50 [10] was > 100 µM (inactive), the GI50 [11] was > 100 µM (inactive) and the GI50 [12] was > 100 µM (inactive). The GI50 [13] was > 100 µM (inactive), the GI50 [14] was > 100 µM (inactive) and the GI50 [15] was 32.4 µM (inactive). The GI50 [16] was > 100 µM (inactive), the GI50 [17] was 57.4 µM (inactive) and the GI50 [18] was > 100 µM (inactive). The GI50 [19] was > 100 µM (inactive), the GI50 [20] was 53.7 µM (inactive) and the GI50 [21] was > 100 µM (inactive). For the same compound, the GI50 [22] was > 100 µM (inactive), the GI50 [23] was > 100 µM (inactive) and the GI50 [24] was > 100 µM (inactive). For the same compound, the GI50 [25] was > 100 µM (inactive), the GI50 [26] was > 100 µM (inactive) and the GI50 [27] was > 100 µM (inactive). The GI50 [28] was > 100 µM (inactive), the GI50 [29] was > 100 µM (inactive) and the GI50 [30] was > 100 µM (inactive). The GI50 [31] was > 100 µM (inactive), the GI50 [32] was > 100 µM (inactive) and the GI50 [33] was > 100 µM (inactive). For the same compound, the GI50 [34] was > 100 µM (inactive), the GI50 [35] was > 100 µM (inactive) and the GI50 [36] was > 100 µM (inactive). The GI50 [37] was > 100 µM (inactive), the GI50 [38] was > 100 µM (inactive) and the GI50 [39] was > 100 µM (inactive). For the same compound, the GI50 [40] was > 100 µM (inactive), the GI50 [41] was > 100 µM (inactive) and the GI50 [42] was > 100 µM (inactive). The GI50 [43] was > 100 µM (inactive), the GI50 [44] was > 100 µM (inactive) and the GI50 [45] was > 100 µM (inactive). For the same compound, the GI50 [46] was > 100 µM (inactive), the GI50 [47] was > 100 µM (inactive) and the GI50 [48] was > 100 µM (inactive). For the same compound, the GI50 [49] was > 100 µM (inactive), the GI50 [50] was > 100 µM (inactive) and the GI50 [51] was 27.9 µM (inactive). For the same compound, the GI50 [52] was > 100 µM (inactive), the GI50 [53] was > 100 µM (inactive) and the GI50 [54] was > 100 µM (inactive). For the same compound, the GI50 [55] was 14.3 µM (inactive), the GI50 [56] was 99.1 µM (inactive) and the GI50 [57] was > 100 µM (inactive). The GI50 [58] was > 100 µM (inactive) and the GI50 [59] was 11.1 µM (inactive).

`c1ccc(C(=NNc2cnc3ccccc3n2)c2ccccn2)cc1` was tested, and the GI50 [2] was 12 µM (inactive), the GI50 [3] was 0.418 µM (active) and the GI50 [5] was 0.424 µM. For the same compound, the GI50 [6] was 0.048 µM (active), the GI50 [7] was 2.02 µM (inactive) and the GI50 [8] was 3 µM (inactive). For the same compound, the GI50 [9] was 3.78 µM (inactive), the GI50 [10] was 20.9 µM (inactive) and the GI50 [11] was 3.3 µM (inactive). For the same compound, the GI50 [12] was 0.532 µM (active), the GI50 [13] was 0.76 µM (active) and the GI50 [14] was 0.405 µM (active). For the same compound, the GI50 [15] was 0.419 µM (active), the GI50 [16] was 4.9 µM (inactive) and the GI50 [17] was 5.6 µM (inactive). For the same compound, the GI50 [18] was 2.31 µM (inactive), the GI50 [19] was 3.15 µM (inactive) and the GI50 [20] was 5.85 µM (inactive). The GI50 [21] was 8.18 µM (inactive), the GI50 [22] was 4.41 µM (inactive) and the GI50 [23] was 7.26 µM (inactive). For the same compound, the GI50 [24] was 0.139 µM (active), the GI50 [25] was 1.58 µM (inactive) and the GI50 [26] was 9.77 µM (inactive). The GI50 [27] was 1.52 µM (inactive), the GI50 [28] was 1.26 µM (inactive) and the GI50 [29] was 0.382 µM (active). The GI50 [30] was 2.56 µM (inactive), the GI50 [31] was 3.96 µM (inactive) and the GI50 [32] was 0.608 µM (active). The GI50 [33] was 2.93 µM (inactive), the GI50 [34] was 12.3 µM (inactive) and the GI50 [35] was 0.371 µM (active). The GI50 [36] was 1.76 µM (inactive), the GI50 [37] was 0.119 µM (active) and the GI50 [38] was 1 µM (active). For the same compound, the GI50 [39] was 6.43 µM (inactive), the GI50 [40] was 0.352 µM (active) and the GI50 [41] was 9.64 µM (inactive). The GI50 [42] was 0.991 µM (active), the GI50 [43] was 7.59 µM (inactive) and the GI50 [44] was 1.2 µM (inactive). The GI50 [45] was 1.42 µM (inactive), the GI50 [46] was 1.75 µM (inactive) and the GI50 [47] was 1.38 µM (inactive). The GI50 [48] was 2.61 µM (inactive), the GI50 [49] was 3.89 µM (inactive) and the GI50 [50] was 0.269 µM (active). For the same compound, the GI50 [51] was 0.109 µM (active), the GI50 [52] was 0.423 µM (active) and the GI50 [53] was 4.08 µM (inactive). The GI50 [54] was 0.0188 µM (active), the GI50 [55] was 0.494 µM (active) and the GI50 [56] was 0.208 µM (active). The GI50 [57] was 2.59 µM (inactive), the GI50 [58] was 0.425 µM (active) and the GI50 [59] was 1.01 µM (active).
